Test systems include SNB-19 CNS; BT-549 breast; K-562 leukemia; NCI-H522 lung; SR leukemia; NCI/ADR-RES ovarian; UO-31 renal; MCF7 breast; MOLT-4 leukemia; EKVX NSCLC.
Holding throughout (experiment): DTP human tumour cell line panel, 48 h

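The compound was tested at five concentrations on cells cultured in 96-well plates, with a 48-hour exposure period. The concentration for 50% growth inhibition is given as GI50. Definition used: TGI = concentration required for complete inhibition of growth.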

By GI50 is commonly meant the concentration at which growth is held to half of that of the control. For orientation: TGI means the concentration at which net growth stops. A low value points to more potent growth arrest.

For `COC(=O)C1=C(C(=O)OC)SC(=C(Cl)C(=S)Sc2ccccc2N)S1`, the GI50 with SNB-19 CNS was 32 µM; with BT-549 breast it was 2.03 µM; in the test on K-562 leukemia, 68.7 µM; with NCI-H522 lung it was 17.4 µM; in the test with SR leukemia, 52.4 µM; with NCI/ADR-RES ovarian, 25.5 µM. In addition, the values for the GI50 in the test on UO-31 renal, with MCF7 breast and with MOLT-4 leukemia were 27 µM, 16.7 µM and greater than 100 µM, respectively. The TGI was greater than 100 µM in the test with SNB-19 CNS; 8.6 µM in the test on BT-549 breast; greater than 100 µM in the test on K-562 leukemia; 43.1 µM with NCI-H522 lung; greater than 100 µM with SR leukemia; 62.1 µM in the test on NCI/ADR-RES ovarian. Besides, the TGI is greater than 100 µM with UO-31 renal, 34 µM with MCF7 breast and greater than 100 µM with MOLT-4 leukemia.

In the case of `CC(C)(C)NC(=O)[C@H]1C[C@H]2CCCC[C@H]2CN1C[C@@H](O)[C@H](Cc1ccccc1)NC(=O)[C@H](CC(N)=O)NC(=O)c1ccc2ccccc2n1`, the GI50 with SNB-19 CNS is 7.97 µM; in the test on BT-549 breast it was 11.2 µM; in the test on K-562 leukemia, 8.51 µM; in the test on NCI-H522 lung, 15.6 µM; in the test on NCI/ADR-RES ovarian it was 19.4 µM; with UO-31 renal, 15.5 µM. In addition, the results for the GI50 in the test with EKVX NSCLC, with MCF7 breast and in the test with MOLT-4 leukemia were 3.57 µM, 19.1 µM and 1.9 µM, respectively. Besides, the TGI with SNB-19 CNS was 23 µM; in the test on BT-549 breast, greater than 66.1 µM; with K-562 leukemia it was 24.4 µM; in the test on NCI-H522 lung, 33.8 µM; with NCI/ADR-RES ovarian it was 44.3 µM; in the test on UO-31 renal, 29.9 µM. The figures for the TGI in the test on EKVX NSCLC, in the test on MCF7 breast and in the test with MOLT-4 leukemia were greater than 59.9 µM, 43.5 µM and 21.8 µM, respectively.

As to `CC(=O)Nc1ccc(S(=O)(=O)NNC(=O)c2cccnc2Nc2ccc(Cl)cc2)cc1`, the GI50 in the test with SNB-19 CNS was 14.1 µM; in the test with BT-549 breast, 25.2 µM; in the test on K-562 leukemia, 8.5 µM; in the test on NCI-H522 lung it was 6.44 µM; with SR leukemia it was 6.35 µM; with UO-31 renal, 91.5 µM. Also, the GI50 in the test on EKVX NSCLC is 48.9 µM; in the test on MCF7 breast it was 4.34 µM; with MOLT-4 leukemia it was 49.6 µM. Also, the TGI in the test on SNB-19 CNS, in the test with BT-549 breast, with K-562 leukemia, in the test with NCI-H522 lung, in the test with SR leukemia and in the test with UO-31 renal was greater than 100 µM in each case. Further, the TGI in the test with EKVX NSCLC, with MCF7 breast and in the test on MOLT-4 leukemia was greater than 100 µM throughout.

Consider `CCN(CC)CCCC(C)Nc1c2ccc(C)cc2nc2ccc(OC)cc12` (stereo not given), for which the GI50 is 4.78 µM with SNB-19 CNS; 10.7 µM in the test on BT-549 breast; 2.92 µM with K-562 leukemia; 2.04 µM with SR leukemia; 4.03 µM with NCI/ADR-RES ovarian; 1.05 µM in the test with UO-31 renal. Further, the GI50 was 2.35 µM in the test on EKVX NSCLC, 0.837 µM in the test with MCF7 breast and 0.777 µM with MOLT-4 leukemia. Besides, the TGI with SNB-19 CNS is 35.7 µM; with BT-549 breast it was 27.3 µM; with K-562 leukemia it was 10.6 µM; in the test on SR leukemia, 7.18 µM; in the test on NCI/ADR-RES ovarian, 22.7 µM; in the test on UO-31 renal, 2.36 µM. Further, the TGI stood at 16 µM with EKVX NSCLC, 11.1 µM with MCF7 breast and 13.6 µM in the test on MOLT-4 leukemia.

Consider `COc1ccc(-c2cn[nH]c2-c2cc(OC)c3c(c2)OCCO3)cc1`, for which the GI50 is 0.33 µM with SNB-19 CNS; 0.494 µM in the test with BT-549 breast; 0.0391 µM with K-562 leukemia; 0.0243 µM in the test on NCI-H522 lung; 0.0473 µM in the test with SR leukemia; 0.0549 µM in the test with NCI/ADR-RES ovarian. The GI50 was 0.734 µM with UO-31 renal, 0.061 µM in the test with MCF7 breast and 0.706 µM with MOLT-4 leukemia. The TGI in the test with SNB-19 CNS is greater than 100 µM; in the test on BT-549 breast, 22 µM; in the test with K-562 leukemia, greater than 100 µM; with NCI-H522 lung, 0.164 µM; in the test with SR leukemia it was 14.2 µM; with NCI/ADR-RES ovarian, 41.5 µM. Further, the concentration for total growth inhibition (TGI) in the test with UO-31 renal was 42 µM; in the test on MCF7 breast it was 32.6 µM; in the test on MOLT-4 leukemia, 34.3 µM.

In the case of `CCCCCCN(CCCCCC)CC(O)c1ccc2c3c(cccc13)CC2` (stereo not given), the GI50 was 11.8 µM in the test on SNB-19 CNS; 13.5 µM in the test with BT-549 breast; 3.14 µM in the test with NCI-H522 lung; 3.32 µM in the test on SR leukemia; 10.6 µM in the test on NCI/ADR-RES ovarian; 3.09 µM with UO-31 renal. The GI50 with EKVX NSCLC was 6.64 µM; in the test on MCF7 breast it was 6.01 µM; with MOLT-4 leukemia, 4.36 µM. The TGI in the test with SNB-19 CNS was found to be 26.6 µM; with BT-549 breast it was 28.1 µM; in the test on NCI-H522 lung it was 13.2 µM; in the test on SR leukemia it was 13.8 µM; in the test with NCI/ADR-RES ovarian it was 26.2 µM; in the test with UO-31 renal, 17.3 µM. Further, the results for the TGI in the test on EKVX NSCLC, with MCF7 breast and in the test with MOLT-4 leukemia were 23.1 µM, 20.8 µM and 22.7 µM, respectively.

As for `CCC(c1cccc(O)c1)C(CC)c1cccc(O)c1` (stereo not given), the GI50 is 13.2 µM with SNB-19 CNS; 1.09 µM with BT-549 breast; 4.9 µM in the test on NCI-H522 lung; 3.53 µM in the test on NCI/ADR-RES ovarian; 4.23 µM in the test on UO-31 renal; 4.54 µM in the test with EKVX NSCLC. Further, in the test on MCF7 breast, the GI50 is 1.62 µM. Moreover, the TGI was determined as 26 µM in the test with SNB-19 CNS; 14.3 µM in the test on BT-549 breast; 19.3 µM in the test on NCI-H522 lung; 14.1 µM with NCI/ADR-RES ovarian; 17.8 µM in the test with UO-31 renal; 35.7 µM in the test on EKVX NSCLC. The same compound came in with a TGI in the test with MCF7 breast of 8.04 µM.

Regarding `CCN1CSC(=S)N(CC)C1`, the TGI with SNB-19 CNS, in the test with BT-549 breast, with K-562 leukemia, in the test with NCI-H522 lung, in the test with NCI/ADR-RES ovarian and in the test with UO-31 renal was greater than 100 µM in each case. For the same compound, the TGI in the test on EKVX NSCLC, in the test with MCF7 breast and with MOLT-4 leukemia was greater than 100 µM in each case.

On to `Cc1cc(=O)oc2cc(O)c(CN(C)CC(=O)O)cc12`, for which the TGI with SNB-19 CNS, in the test on BT-549 breast, with K-562 leukemia, with NCI-H522 lung, in the test with SR leukemia and in the test on NCI/ADR-RES ovarian was greater than 100 µM throughout. Moreover, the total growth inhibition concentration (TGI) with UO-31 renal, in the test with EKVX NSCLC and in the test with MCF7 breast was greater than 100 µM throughout.

The values are drawn from PubChem BioAssay (NCI).
